Here are results for seven compounds from patent US5182284A, “Piperazine compounds, processes for preparation thereof and medical uses thereof” (Taiho Pharmaceutical Co., Ltd., priority 1990, dated 1993).

In assay [1] the test system is contraction of respiratory tract. Briefly: Effect on allergic asthma (airway resistance after ovalbumin challenge in passively sensitized guinea pigs). The note with it: mean ± standard error, oral, 100 mg in 5 ml, 5 ml/kg, 2 hours before challenge, ovalbumin i.v., diphenhydramine, propranolol and indomethacin pretreatment. Format: in vivo, guinea pig (Hartley). The protocol: 3. Effect on allergic asthma
To a guinea pig (Hartley, 350 to 400 g, male) was administered 0.5 ml/kg of a guinea pig anti-ovalbumin IgE serum for passive sensitization. Two days later, the guinea pig was anesthetized with pentobarbital (70 mg/kg) and a cannula and a catheter were each inserted into the trachea and a carotid artery, respectively. Further, the spontaneous respiration of the guinea pig was stopped with use of 0.5 mg/kg of pancuronium bromide and artificial respiration was conducted (100% oxygen at 1 kgf/cm^2, respirator: EVM-50A (manufactured by AIKA Co., Ltd.), predetermined flow rate of oxygen: 0.45 l/min, number of respiration: 40 times/min, time for inspiration: 0.25 sec/respiration). The measurement for contraction of respiratory tract was carried out by modified Konzett and Rossler method. A 100 mg quantity of the compound of the present invention was suspended in 5 ml of a 5% Tween-80-phosphate buffered physiological saline solution (pH 6.8). Two hours before the challenge, the test drug was orally administered in a volume of 5 ml/kg. The same quantity of the solvent alone was orally administered to a control group. Further, 2.5 mg/kg of diphenhydramine, 0.05 mg/kg of propranolol and 5 mg/kg of indomethacin were intravenously administered 5 minutes before the challenge. A 22.5 to 35 μg/kg quantity of ovalbumin was intravenously administered and the contraction of respiratory tract was measured as airway resistance with use of a pressure transducer. The maximum airway resistance was taken as 100%, and the change in the airway resistance caused a predetermined period of time after the challenge was shown as the ratio relative to the maximum airway resistance.

The target of assay [2] is Cyclooxygenase. Briefly: Cyclooxygenase inhibitory effect. The assay is classed as biochemical. The following applies: seminal vesicular gland microsomes, 14C-arachidonic acid, prostaglandin E2 formation. The protocol: (1) Cyclooxygenase inhibitory effect
The assay was carried out by the method described in Biochem. Pharmacol. 25, 2479-2484 (1976).
^14 C-Arachidonic acid was reacted with seminal vesicular gland microsomes and the test drugs at various concentrations over a predetermined period of time and the obtained prostaglandin E2 was separated by thin-layer chromatography. The radioactivity was determined by liquid scintillation counter. The IC50 values were calculated by the comparison with the radioactivity of the control.

In assay [3] the target is T1, 5-Lipoxygenase (Cavia porcellus, UniProt A0A286X958).
T1 construct: the polymorphonuclear leukocytes were collected and the cytosol fraction was obtained as an enzyme source; endogenous in cells; host or cells: guinea pig peritoneal polymorphonuclear leukocytes (casein-elicited), cytosol fraction
T1 sequence (A0A286X958 1-674): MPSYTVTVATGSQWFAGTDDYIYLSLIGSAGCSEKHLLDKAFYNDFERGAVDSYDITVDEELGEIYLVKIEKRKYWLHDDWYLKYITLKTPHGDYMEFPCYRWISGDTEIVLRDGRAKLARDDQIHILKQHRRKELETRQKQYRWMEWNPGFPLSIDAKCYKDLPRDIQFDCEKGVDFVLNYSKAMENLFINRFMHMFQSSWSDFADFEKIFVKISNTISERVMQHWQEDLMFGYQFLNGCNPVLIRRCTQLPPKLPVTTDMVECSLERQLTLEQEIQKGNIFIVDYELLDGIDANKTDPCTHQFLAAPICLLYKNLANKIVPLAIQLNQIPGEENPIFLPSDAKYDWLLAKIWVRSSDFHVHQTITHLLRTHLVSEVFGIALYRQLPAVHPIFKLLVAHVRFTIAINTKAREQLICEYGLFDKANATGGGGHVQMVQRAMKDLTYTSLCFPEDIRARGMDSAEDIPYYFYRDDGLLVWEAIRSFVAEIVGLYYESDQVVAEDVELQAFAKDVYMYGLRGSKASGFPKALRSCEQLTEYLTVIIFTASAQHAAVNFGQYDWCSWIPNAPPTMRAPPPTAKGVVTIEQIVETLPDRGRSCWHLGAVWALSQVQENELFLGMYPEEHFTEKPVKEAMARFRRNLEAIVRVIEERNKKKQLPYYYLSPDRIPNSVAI
As to the kind of experiment: 5-Lipoxygenase inhibitory effect. Format: biochemical. The note with it: cytosol fraction of guinea pig polymorphonuclear leukocytes, 14C-arachidonic acid, 5-hydroxyeicosatetraenoic acid formation. The protocol: 2) 5-Lipoxygenase inhibitory effect
The assay was carried out by the method described in Journal of Biological Chemistry 258, 5754-5758 (1983) Casein was injected into the abdominal cavity of a guinea pig, and the polymorphonuclear leukocytes were collected and the cytosol fraction was obtained as an enzyme source. ^14 C-Arachidonic acid was reacted with the enzyme and the test drugs at various concentrations over a predetermined period of time. The obtained 5-hydroxyeicosatetraenoic acid was separated by thin-layer chromatography and the radioactivity was determined. By the comparison with the radioactivity of the control, the IC50 values were calculated.

For `CCCCCCCCCCN1CCN(C(=O)CNC(=O)/C=C/c2ccc(OC(=O)OCC)c(OC(=O)OCC)c2)CC1` [Compound 40], the “Airway resistance (ratio relative to the maximum airway resistance)” value is recorded as 22.6 ± 3.7% in assay [1] (3 minutes after challenge, control 41.9 ± 7.0); 45.6 ± 11.0% in assay [1] (8 minutes after challenge, control 79.5 ± 5.4); 40.9 ± 11.3% in assay [1] (16 minutes after challenge, control 75.3 ± 5.8).
For `CCCCCCCCCCN1CCN(C(=O)CNC(=O)/C=C/c2ccc(O)c(O)c2)CC1` [Compound 23], the IC50 came out at 4200 nM in assay [2] and 40 nM in assay [3].
As to `O=C(Cc1ccc(O)c(O)c1)OC(CN1CCN(CCCCCCCCCCO)CC1)c1ccccc1` (stereo not drawn) [Compound 8], the figures for the IC50 in assay [2] and in assay [3] were 9900 nM and 320 nM, respectively.
On to `CCCCCCCCCCN1CCN(CC(OC(=O)/C=C/c2ccc(O)c(O)c2)c2ccccc2)CC1` (stereo not drawn) [Compound 19], for which the IC50 in assay [2] was 4300 nM; in assay [3], 80 nM.
Turning to `CCCCCCCCN1CCN(C(=O)/C=C/c2ccc(O)c(O)c2)CC1` [Compound 36], the IC50 was found to be 2900 nM in assay [2] and 120 nM in assay [3].
As to `O=C(/C=C/c1ccc(O)c(O)c1)OC(CN1CCN(CCCCCCCCCCO)CC1)c1ccc(Cl)cc1` (stereo not drawn) [Compound 15], the IC50 in assay [2] was determined as 3400 nM; in assay [3], 90 nM.
Turning to `CCCCCCCCCCN1CCN(C(=O)/C=C/c2ccc(O)c(O)c2)CC1` [Compound 35], the values for the IC50 in assay [2] and in assay [3] were 8400 nM and 40 nM, respectively.
